89 compounds from a melting point compilation (Tetko et al.; mined from patent text by program, amines drawn as free bases though some values may be those of a salt) can be followed below.

Residues, ends and D or L forms follow the SMILES beside them. *: point of attachment. Cbz = O=C(OCc1ccccc1)*

As usually defined, the melting point is the temperature, or range, at which the solid turns liquid.

In the case of `CC1(c2ccccc2)Cc2c3c(c(Cl)c(Cl)c2C1=O)OC(C(=O)O)C3` (centres undefined), the melting point worked out at 188 °C.
`CC(C)(C)c1cc(-c2nc(CC(=O)O)co2)cc(C(C)(C)C)c1O` registered a melting point of 166 to 168 °C.
For `Cc1c(-c2ccccc2)oc2c(C(=O)OCCN3CCCCC3)cccc2c1=O`, the melting point fell in the range of 85 to 86 °C.
The same measure for `CN(CCCc1c(N)nc(N)[nH]c1=O)c1ccc(C(=O)N[C@@H](CCC(=O)O)C(=O)O)cc1`: 190 to 200 °C.
As for `O=C1CN(c2ccccc2)C(=S)N1c1ccccc1`, the figure is 214 °C.
The same measure for `COc1cc(Nc2c(C#N)cnc3sc(-c4ccc(CN5CCOCC5)cc4)cc23)c(Cl)cc1Cl`: 106 to 108 °C; for `NC1=NC(c2cccc(-c3cccnc3F)c2)(c2ccc3c(c2)OC(F)(F)O3)C2=NCCCN12` (centres undefined): 95 to 99 °C.
For `COC(=O)[C@H](Cc1c[nH]cn1)NC(=O)[C@H](Cc1ccccc1)NC(=O)[C@H](Cc1ccccc1)NC(=O)OCc1ccccc1` (Cbz-Phe-Phe-His-OMe), the melting point is 204 to 206 °C.
The same measure for `c1ccc(COC2CCN(Cc3c[nH]c4ccccc34)CC2)cc1`: 143 to 145 °C.
With `CCOC(=O)c1cc(OCc2ccccc2)cc(OCc2ccccc2)c1`, the melting point is 63 to 65 °C.
In turn, `Cc1cc(C(=N)NO)cn2cc(-c3cccc(-c4ccc(C(=N)NO)cc4)c3)nc12` displayed a melting point of 193 to 195 °C.
Consider `O=C(NS(=O)(=O)c1ccccc1-c1ccccc1)Oc1ccccc1`, for which the melting point was in the range of 114 to 117 °C.
With `COc1ccc2c(c1)C(=O)c1ccc(C3=NCCN3)cc1S2(=O)=O`, the melting point was in the range of 220 to 224 °C.
The same measure for `COC(=O)c1sc(Cl)nc1-c1ccccc1`: 55 to 57 °C.
As for `COc1ccc(-c2ccc(C(=O)Nc3cc4ncc(CN5CCCC5)cc4cc3C)cc2)cc1`, the figure is 194 to 198 °C; as for `CC1=CC(COC(c2ccccc2)(c2ccccc2)c2ccccc2)O[C@H]1c1coc2c(N)ncnc12` (some centres undefined), 128 to 132 °C; as for `O=c1cc2c(n[nH]1)-c1ccccc1C2`, 295 °C.
As for `CP(=O)(O)CC1CC(Cl)=NO1` (centres undefined), the figure is 116 °C; as for `Cc1cc(-c2noc(C(F)F)n2)cc(C)c1OCCCc1cncs1`, 78 to 80 °C; as for `CSc1ccc(-c2c(C(F)(F)F)n(C)[nH]c2=O)cc1`, 142 to 146 °C.
Take `CC1(C)CC(=O)Nc2cc3nc(O)[nH]c3cc21`: the melting point was above 300 °C.
Take `O=c1ccc(C(F)(F)F)cn1-c1ccc(NCCCN2CCCCC2)cc1Cl`: the melting point was 112 to 115 °C.
In turn, `COC(=O)C1CC(Oc2ccc(N)cc2)CN1C(=O)C1(C)CCc2c(C)c(O)c(C)c(C)c2O1` (centres undefined) had a melting point of 110 to 112 °C.
As to `CCOC(=O)C1=C(C)NC(CO)=C(C(=O)OCC)C1c1ccccc1[N+](=O)[O-]` (centres undefined), the melting point lay within 112 to 113 °C.
As for `ON=Cc1cc(Cl)ncc1Cl`, the figure is 173 to 174 °C.
As for `Cn1c(CC#N)ccc1C(=O)c1ccc(C(F)(F)F)cc1`, the figure is 95 to 97.5 °C; as for `NC(=O)c1cc2cc(Cl)ccc2o1`, 200 to 202 °C.
The same measure for `CCOC(=O)C(=O)Nc1ccc2cc(Br)ccc2c1[N+](=O)[O-]`: 175 °C; for `CCCCN1CCCC1CNC(=O)c1cc(Cl)cc2c1SCCN2C` (centres undefined): 108 to 109 °C.
For the compound `O=C1N(N2CCCCC2)c2ccccc2C1(Cc1ccccc1)Cc1ccccc1`, the melting point lay in the range of 94 to 96 °C.
Compound `O=C(Nc1ccc(C(=O)N2Cc3ccccc3Cc3ccccc32)cc1)c1ccccc1Cl` showed a melting point of 110 to 115 °C.
Consider `C=CCOC(=O)NCc1ccc(C(=O)O)cc1`, for which the melting point is 175 to 177 °C.
As for `COc1ccc(Cl)cc1C1(O)C(=O)Nc2ccc(Br)cc21` (centres undefined), the figure is 245 to 247 °C.
Turning to `O=C(O)CCCCCCCCCCCCCCCCC(=O)n1nnc2ccccc21`, the melting point was 105 °C.
As for `Cn1cc(Br)nc(Nc2cnn(C3CC3)c2)c1=O`, the figure is 228 to 230 °C.
`O=C(N[C@@H](CO)c1nc2cc(Br)ccc2[nH]1)c1ccc(C(=O)N2CCCC2)c(Br)c1` yielded a melting point of 114 to 116 °C.
The same measure for `COc1cc(NC(=O)CC(C)=O)c(OC)cc1Cl`: 105 to 106 °C; for `Cc1nc2ccccc2c(=O)n1CCCOS(C)(=O)=O`: 148 to 150 °C; for `CC(C)(C)OC(=O)Nc1cc(N2CCOCC2)cc(C(F)(F)F)c1`: 146 to 148 °C.
Consider `O=C(O)Cc1csc(NC(=O)OCC(Cl)(Cl)Cl)n1`, for which the melting point was 164 °C.
The compound `NC(=O)[C@H](O)[C@@H](O)[C@H](O)[C@H](O)CO` displayed a melting point of 109 to 111 °C.
Turning to `O=C(O)CCCc1ccc(-c2ccc(F)cc2)cc1`, the melting point was in the range of 118 to 120 °C.
As for `CCN(C)C(=O)[C@H]1O[C@@H](n2cnc3c(N)ncnc32)[C@H](O)[C@@H]1O`, the figure is 86 to 90 °C; as for `Cc1c(NC(=O)c2ccc(OC[C@@H]3CCCO3)cc2)ccc2cc(CNCC(C)(C)C)[nH]c12`, 168 °C.
As for `CC(C)(CO)NC(=O)c1nn(-c2ccc(Cl)cc2F)c2c1C1CCC2C1` (centres undefined), the figure is 158 to 160 °C; as for `Nc1ccc([N+](=O)[O-])cc1OCCO`, 140 to 142 °C; as for `CCOC(OCC)c1cccc2c1Sc1ccccc1N2C`, 44.6 to 46.2 °C.
`N#Cc1ccc(-c2cc(-c3ccc(C#N)cc3[N+](=O)[O-])no2)cc1` registered a melting point of 264 to 265 °C.
As for `COC(=O)C1C(=O)Nc2ccc(C(F)(F)F)cc2CC1c1ccccc1Cl` (centres undefined), the figure is 183 to 184 °C.
`CCc1c(-c2ccc(OCc3ccccc3)cc2)c2c3c(c4c(OCc5ccccc5)ccc1n42)C(=O)OC3=O` had a melting point of 229 to 231 °C.
On to `CN(C)C1=C(Cl)C(=O)NC1=Nc1ccccc1`, for which the melting point lay in the range of 135 to 138 °C.
For the compound `CC(=O)Nc1nc2c(Oc3cc(-c4ccc5c(c4)OC(C)(C)C5)ncn3)cccc2s1`, the melting point was 224 to 225 °C.
The same measure for `CCOC(=O)[C@H](CC(C)C)SC[C@H](O)[C@H](CC1CCCCC1)NC(=O)[C@H](Cc1c[nH]cn1)NC(=O)[C@H](Cc1ccccc1)NC(=O)OC(C)(C)C`: above 82 °C.
As for `Nc1ccc(F)c(SC(F)(F)F)c1`, the figure is 120 °C.
For the compound `CC1(Cc2ccccc2)COc2cc(C(=O)O)ccc21` (centres undefined), the melting point came to 165 °C.
The same measure for `CC(=O)OC1(c2ccccc2)C=CC(=O)C=C1`: 100 to 101 °C.
Compound `Nc1nc(=O)n(C2CC(O)C(CO)O2)cc1-c1ccccn1` (centres undefined) registered a melting point of 197 to 198 °C.
`Nc1cccc2c1sc1c(Nc3cccc(Br)c3)ncnc12` registered a melting point of 216 to 217 °C.
As for `COC(=O)CC(NC(=O)C(CSC(C)=O)Cc1ccccc1)c1ccc2ccccc2c1` (centres undefined), the figure is 133 to 135 °C; as for `O=C(O)c1ccc(S(F)(F)(F)(F)F)cc1[N+](=O)[O-]`, 165 to 167 °C.
As for `CCOC(=O)C1=C(N)NC2=C(C(=O)CCC2)C1c1cccc2ccccc12` (centres undefined), the figure is 279 °C.
As for `O=c1oc(-c2cccc(C(F)(F)F)c2)nc2ccc(F)cc12`, the figure is 118 to 119 °C.
`CC1=NN(C)C(=O)C1(Cl)C(=O)c1cc(C)ccc1[N+](=O)[O-]` (centres undefined) showed a melting point of 110 to 111 °C.
The same measure for `CCCCCCSc1c(O)cc(C)oc1=O`: 69 to 70 °C; for `Cc1c(CC(C)(C)C(=O)O)n(Cc2ccc(Cl)cc2)c2ccc(OCc3ccc4ccccc4n3)cc12`: 215 to 217 °C.
As for `Cc1ccc(S(=O)(=O)N(C(N)=O)c2cccc(Br)n2)cc1`, the figure is above 310 °C; as for `CC(C)c1ccc(-c2cncc(-c3cccc(C(=O)O)c3)c2)cc1`, 155 to 156 °C.
Compound `CC1(CO)CCN(c2ccc(C#N)c3ccccc23)CC1` returned a melting point of 136 to 137 °C.
Consider `S=C1CN=C(c2ccccn2)c2cc(Cl)ccc2N1`, for which the melting point lay within 217 to 218 °C.
As for `CCOc1ccccc1N1CCN(CCCC2CN(C)C(=O)O2)CC1` (centres undefined), the figure is 79 to 81 °C; as for `COc1ccc(C2=NN(C3CCN(S(=O)(=O)c4ccccc4C)CC3)C(=O)C(C)(C)C2)cc1OC`, 132 to 133 °C; as for `CCCOc1cc(Br)ccc1-c1nc2cc3ncn(Cc4ccc(F)cc4)c3cc2c(=O)[nH]1`, 295 to 297 °C.
In turn, `O=C=Nc1c(Br)cccc1Br` gave a melting point of 68 to 70 °C.
`CCOC(=O)C(=CNC1CC1)C(=O)c1cc(F)c(F)c(C)c1F` returned a melting point of 73 to 75 °C.
`CC(C)(C)C(=O)C(Cc1ccc(Cl)cc1)n1cncn1` (centres undefined) displayed a melting point of 124 °C.
The same measure for `COC(=O)C1Cc2c([nH]c3ccccc23)CN1C(=S)Sc1cccs1` (centres undefined): 150 to 152 °C; for `CCCn1cc(Cc2ccc(C(=O)O)cc2OC)c2cc(CC3CCCN(C)C3=O)ccc21` (centres undefined): 105 to 115 °C; for `COC(=O)NC(C)(C)c1ccc(CC#N)cc1`: 88 to 90 °C.
`COCCNC(=O)c1cccc(-c2cccc3cc(COc4cc(C(F)(F)F)ccn4)sc23)c1` gave a melting point of 186 to 187 °C.
The same measure for `CCc1nc2c(C)cc(C)nc2n1Cc1ccc(C(c2ccccc2)C(C)(C)C(=O)O)cc1` (centres undefined): 103 to 106 °C; for `Cc1ccc(NCC2CCN(C3CCOCC3)CC2)c(C(=O)Nc2ccc(Cl)cn2)c1`: 178 to 182 °C; for `CCCNc1nc(NCCC)nc(Nc2ccc(OC)c(F)c2)n1`: 53 to 55 °C.
Compound `COc1ccc(C(=O)c2sc3cc(OC)ccc3c2-c2ccccc2)cc1` returned a melting point of 127 to 128 °C.
`COc1cc(C#N)ccc1-c1cc(-c2cccc(C#N)c2)on1` displayed a melting point of 202 to 204 °C.
The same measure for `CC(C)(C)c1ccc2c(c1)CNC2=O`: 132 to 134 °C.
On to `FC(F)(F)n1cc(Br)cn1`, for which the melting point was found to be 4 °C.
The same measure for `O=C1COCC(=O)NCCOCCN1`: 180 to 181 °C; for `COc1cc(OC)c2c(=O)[nH]c(-c3cc(C)c(OC)c(C)c3)cc2n1`: 262 to 263 °C.
The same measure for `CCCCOc1c(C(=O)O)n(CC2CC2)c(=O)c2ccc(Br)cc12`: 166 to 167 °C.
